In ChEMBL document CHEMBL1149525, “Synthesis and evaluation of anilinohexafluoroisopropanols as activators/modulators of LXRalpha and beta” (Bioorg Med Chem Lett, 2006):

Columns and labels:
[1] = biological target: T1, Oxysterols receptor LXR-alpha (Homo sapiens, UniProt Q13133)
T1 sequence (Q13133 whole entry): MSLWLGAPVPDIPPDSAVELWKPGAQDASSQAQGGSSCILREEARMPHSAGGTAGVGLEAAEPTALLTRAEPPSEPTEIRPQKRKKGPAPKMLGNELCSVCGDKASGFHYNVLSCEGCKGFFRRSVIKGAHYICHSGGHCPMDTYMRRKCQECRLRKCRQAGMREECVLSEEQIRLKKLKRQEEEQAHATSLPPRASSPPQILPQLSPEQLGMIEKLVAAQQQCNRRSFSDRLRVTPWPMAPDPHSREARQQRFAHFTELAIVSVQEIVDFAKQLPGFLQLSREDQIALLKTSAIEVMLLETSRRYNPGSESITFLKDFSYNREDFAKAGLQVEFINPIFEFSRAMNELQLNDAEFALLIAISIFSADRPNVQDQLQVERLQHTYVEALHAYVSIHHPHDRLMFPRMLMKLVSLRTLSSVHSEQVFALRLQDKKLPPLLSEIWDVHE

[2] = biological target: T1, Oxysterols receptor LXR-alpha; remark: listed apart in the source
[3] = test system: Mus musculus; assay: Decrease in plasma triglyceride level in C57BL/6J mouse after 5 days at 10 mg/kg/day relative to control; format: functional; set-up: scale not given: the % may be the effect or the level left
[4] = biological target: T2, Oxysterols receptor LXR-beta (Homo sapiens, UniProt P55055)
T2 sequence (P55055 whole entry): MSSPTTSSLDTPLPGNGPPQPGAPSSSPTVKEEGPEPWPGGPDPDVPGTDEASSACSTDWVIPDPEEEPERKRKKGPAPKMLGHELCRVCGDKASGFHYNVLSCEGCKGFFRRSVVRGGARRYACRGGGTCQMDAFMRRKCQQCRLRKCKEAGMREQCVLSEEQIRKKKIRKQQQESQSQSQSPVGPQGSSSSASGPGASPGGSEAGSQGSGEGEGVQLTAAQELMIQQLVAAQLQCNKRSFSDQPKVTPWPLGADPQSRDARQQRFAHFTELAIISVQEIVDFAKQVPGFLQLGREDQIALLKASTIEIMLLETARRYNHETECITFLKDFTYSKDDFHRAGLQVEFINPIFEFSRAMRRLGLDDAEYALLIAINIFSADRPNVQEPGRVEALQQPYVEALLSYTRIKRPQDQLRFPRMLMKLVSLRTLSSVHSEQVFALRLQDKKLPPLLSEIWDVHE

[5] = test system: Mus musculus; assay: Increase in plasma HDL-C level in C57BL/6J mouse after 5 days at 10 mg/kg/day relative to control; format: functional
[6] = Plasma concentration in C57BL/6J mouse after 5 days at 10 mg/kg/day; format: ADME, organism-based
[7] = test system: Mus musculus; assay: Increase in liver triglyceride level in C57BL/6J mouse after 5 days at 10 mg/kg/day relative to control; format: functional
[8] = Liver concentration in C57BL/6J mouse after 5 days at 10 mg/kg/day; format: ADME, organism-based; conditions: read-out: Drug uptake
[9] = biological target: T2, Oxysterols receptor LXR-beta; remark: listed apart in the source
[10] = Plasma concentration in C57BL/6J mouse after 5 days at 100 mg/kg/day; format: ADME, organism-based
[11] = test system: Mus musculus; assay: Increase in plasma HDL-C level in C57BL/6J mouse after 5 days at 100 mg/kg/day relative to control; format: functional
[12] = Liver concentration in C57BL/6J mouse after 5 days at 100 mg/kg/day; format: ADME, organism-based; conditions: read-out: Drug uptake
[13] = test system: Mus musculus; assay: Increase in plasma triglyceride level in C57BL/6J mouse after 5 days at 100 mg/kg/day relative to control; format: functional
[14] = test system: Mus musculus; assay: Increase in liver triglyceride level in C57BL/6J mouse after 5 days at 100 mg/kg/day relative to control; format: functional
[15] = test system: Mus musculus; assay: Decrease in plasma triglyceride level in C57BL/6J mouse after 5 days at 100 mg/kg/day relative to control; format: functional; set-up: scale not given: the % may be the effect or the level left

Compound	EC50 [1] [nM]	IC50 [2] [nM]	also measured
CCN(Cc1ccncc1)c1ccc(C(O)(C(F)(F)F)C(F)(F)F)cc1	2100	1700	–
CCN(Cc1ccccn1)c1ccc(C(O)(C(F)(F)F)C(F)(F)F)cc1	700	1500	–
OC(c1ccc(N(Cc2ccccc2)CC(F)(F)F)cc1)(C(F)(F)F)C(F)(F)F	900	70	–
CCN(Cc1nc(-c2cccc(C(F)(F)F)c2)oc1C)c1ccc(C(O)(C(F)(F)F)C(F)(F)F)cc1	200	6	Activity [3]: 12%; IC50 [4]: 3 nM; Activity [5]: 35%; concentration at 120 h [6]: 700 ng/mL; Activity [7]: 70%; concentration at 120 h [8]: 8200 ng/g; EC50 [9]: 60 nM
CCN(Cc1cscn1)c1ccc(C(O)(C(F)(F)F)C(F)(F)F)cc1Cl	500	20	–
Cc1oc(-c2cccc(C(F)(F)F)c2)nc1CN(CC(F)(F)F)c1ccc(C(O)(C(F)(F)F)C(F)(F)F)cc1	700	13	–
CCN(Cc1nc(-c2cccc(Cl)c2)oc1C)c1ccc(C(O)(C(F)(F)F)C(F)(F)F)cc1Cl	300	2	–
CCN(CCc1ccccc1)c1ccc(C(O)(C(F)(F)F)C(F)(F)F)cc1	1000	120	–
CCN(Cc1ccccc1)c1ccc(C(O)(C(F)(F)F)C(F)(F)F)cc1Cl	200	3	concentration at 120 h [10]: 3400 ng/mL; Activity [11]: 23%; concentration at 120 h [12]: 13000 ng/g; Activity [13]: 7%; IC50 [4]: 3 nM; Activity [14]: 28%; EC50 [9]: 80 nM
CCN(Cc1cccnc1)c1ccc(C(O)(C(F)(F)F)C(F)(F)F)cc1	4300	2700	–
CCN(Cc1nc(-c2cccc(C(F)(F)F)c2)oc1C)c1ccc(C(O)(C(F)(F)F)C(F)(F)F)cc1Cl	100	6	–
CCN(Cc1ccccc1)c1ccc(C(O)(C(F)(F)F)C(F)(F)F)cc1	1100	50	–
OC(c1ccc(N(Cc2ccccc2)CC(F)(F)F)c(Cl)c1)(C(F)(F)F)C(F)(F)F	100	1	–
CCN(Cc1cscn1)c1ccc(C(O)(C(F)(F)F)C(F)(F)F)cc1	3300	600	–
CCN(CCc1ccccc1)c1ccc(C(O)(C(F)(F)F)C(F)(F)F)cc1Cl	800	6	–
Cc1oc(-c2cccc(Cl)c2)nc1CN(CC(F)(F)F)c1ccc(C(O)(C(F)(F)F)C(F)(F)F)cc1	1000	30	–
CCN(c1ccc(C(O)(C(F)(F)F)C(F)(F)F)cc1Cl)C(COc1ccc(CC(=O)O)cc1)c1ccccc1 (racemic)	5500	100	–
CCN(c1ccc(C(O)(C(F)(F)F)C(F)(F)F)cc1Cl)C(COc1ccc(CCC(=O)OC)cc1)c1ccccc1 (racemic)	1400	100	–
CCN(c1ccc(C(O)(C(F)(F)F)C(F)(F)F)cc1)C(COCCO)c1ccccc1 (racemic)	> 40000	12000	–
CCN(c1ccc(C(O)(C(F)(F)F)C(F)(F)F)cc1)C(C(=O)OC)c1ccccc1 (racemic)	2300	700	–

Compound	EC50 [1] [nM]	IC50 [2] [nM]	also measured
CCN(c1ccc(C(O)(C(F)(F)F)C(F)(F)F)cc1)C(C)(C(=O)N(C)C)c1ccccc1 (racemic)	400	200	–
CCN(c1ccc(C(O)(C(F)(F)F)C(F)(F)F)cc1)C(COCC(=O)N(C)C)c1ccccc1 (racemic)	800	900	–
CCN(c1ccc(C(O)(C(F)(F)F)C(F)(F)F)cc1Cl)C(COc1ccc(C(=O)OC)cc1)c1ccccc1 (racemic)	700	60	–
CCN(c1ccc(C(O)(C(F)(F)F)C(F)(F)F)cc1)C(C(=O)NC)c1ccccc1 (racemic)	10900	11200	–
CCN(c1ccc(C(O)(C(F)(F)F)C(F)(F)F)cc1Cl)C(CC)(C(=O)OC)c1ccccc1 (racemic)	500	60	–
CCN(c1ccc(C(O)(C(F)(F)F)C(F)(F)F)cc1)C(C(=O)O)c1ccccc1 (racemic)	9400	5200	–
CCN(c1ccc(C(O)(C(F)(F)F)C(F)(F)F)cc1)C(COCC(=O)O)c1ccccc1 (racemic)	10000	61000	–
CCN(c1ccc(C(O)(C(F)(F)F)C(F)(F)F)cc1)C(COC)c1ccccc1 (racemic)	900	400	–
CCN(c1ccc(C(O)(C(F)(F)F)C(F)(F)F)cc1)C(COCc1ccccc1)c1ccccc1 (racemic)	1900	200	–
CCN(c1ccc(C(O)(C(F)(F)F)C(F)(F)F)cc1)C(C(=O)N(C)C)c1ccccc1 (racemic)	9300	13800	–
CCN(c1ccc(C(O)(C(F)(F)F)C(F)(F)F)cc1)C(C)(C(=O)OC)c1ccccc1 (racemic)	100	50	concentration at 120 h [10]: 2300 ng/mL; Activity [11]: 12%; concentration at 120 h [12]: 6300 ng/g; IC50 [4]: 8 nM; Activity [15]: 11%; Activity [14]: 520%; EC50 [9]: 30 nM
CCN(c1ccc(C(O)(C(F)(F)F)C(F)(F)F)cc1Cl)C(COc1ccc(CC(=O)OC)cc1)c1ccccc1 (racemic)	1100	200	–
CCN(c1ccc(C(O)(C(F)(F)F)C(F)(F)F)cc1)C(CC)(C(=O)OC)c1ccccc1 (racemic)	300	50	–
CCN(c1ccc(C(O)(C(F)(F)F)C(F)(F)F)cc1Cl)C(COc1ccc(CCC(=O)O)cc1)c1ccccc1 (racemic)	4500	60	–
COC(=O)C1(c2ccccc2)CCCCN1c1ccc(C(O)(C(F)(F)F)C(F)(F)F)cc1 (racemic)	90	60	–
COC(=O)C1(c2ccccc2)CCCN1c1ccc(C(O)(C(F)(F)F)C(F)(F)F)cc1 (racemic)	200	50	–
CCN(c1ccc(C(O)(C(F)(F)F)C(F)(F)F)cc1)C(COCC(=O)OC)c1ccccc1 (racemic)	2200	600	–
CCN(c1ccc(C(O)(C(F)(F)F)C(F)(F)F)cc1)C(C(=O)N1CCOCC1)c1ccccc1 (racemic)	8500	5400	–
CCN(c1ccc(C(O)(C(F)(F)F)C(F)(F)F)cc1)C(COCC(=O)NC)c1ccccc1 (racemic)	> 40000	18000	–
CCN(c1ccc(C(O)(C(F)(F)F)C(F)(F)F)cc1Cl)C(COc1ccc(C(=O)O)cc1)c1ccccc1 (racemic)	3700	100	–
